{
  "source": "patent US7741337B2",
  "about": "“Azonafide derivatives, methods for their production and pharmaceutical compositions therefrom” (Unibioscreen S.A., priority 2005, dated 2010)",
  "key": {"[1]": {"system": "U-373 MG, PC-3 and/or A549 cancer cells", "assay": "Effect on cell migration, summary of table 3", "assay_type": "cell-based, human", "conditions": "for migration level of cancer cells: U-373 MG, PC-3 and/or A549 cancer cells at the non-cytotoxic concentrations of this study; for cell migration activity compared with the closest compounds known in the art: comparison drawn from table 3", "procedure": "(§1) Cells of different cancer lines, i.e. U-373 MG (Glioma cancer), PC3 (prostate cancer and A549 (Lung cancer) were seeded on culture flask 48 hours before the migration experiment. On the test day, cells were treated with or without the azonafide derivatives mentioned in table 3 in closed Falcon dishes containing a buffered medium at a controlled temperature (37.0±0.1° C.) for 12 or 22 hours, as noted in the right column of table 3. The azonafide derivatives were used at three non-cytotoxic concentrations (10^−6 M, 10^−7, 10^−8 M). Migration of the cells was observed by means of a CCD-camera mounted on a phase-contrast microscope. Statistical analysis of the migration, with the non-parametric Mann-Whitney test, was established for 25% and 50% of the most motile cells and for the entire cell population."}, "A549 (Lung cancer) cells": {"system": "A549 (Lung cancer) cells", "assay": "Effect on cell migration, A549", "assay_type": "cell-based", "conditions": "Homo sapiens, p value in same cell, read-out: Maximum effects (cell migration); for Emax at 0.01 µM: 22 hours on the 25% of most motile cells, at 10^−8 M", "procedure": "as §1"}, "[2]": {"system": "human cancer cell lines Hs683, U-373MG, HCT-15, LoVo, A549 and MCF-7", "assay": "MTT test, effect on overall cell growth (mean of six cell lines, examples 3 to 26)", "assay_type": "cell-based", "conditions": "mean of six cell lines Hs683, U-373MG, A549, MCF-7, 72 hours incubation, range of molar concentrations resulting in 50% inhibition of overall tumor cells growth", "procedure": "(§2) MTT tests were performed in order to rapidly, i.e. within 5 days, measure the effect of azonafide derivatives of this invention on the overall cell growth. The test measures the number of metabolically active living cells that are able to transform the yellow product 3-(4,5-dimethylthiazol-2-yl)-2,5-diphenyl tetrazolium bromide (herein referred as MTT) into the blue product formazan dye by mitochondrial reduction. The amount of formazan obtained at the end of the experiment, measured by means of a spectrophotometer, is directly proportional to the number of living cells. Optical density determination thus enables a quantitative measurement of the effect of the investigated compounds as compared to the control condition (untreated cells) and/or to other reference compounds.\n(§3) Height human cancer cell lines described in table 1 were used in the following MTT tests. These cell lines cover six histological cancer types, being prostate, glioma, pancreas, colon, lung and breast cancers. Cells were allowed to grow in 96-well micro-wells with a flat bottom with an amount of 100 μl of cell suspension per well with 1,000 to 4,000 cells/well depending on the cell type used. Each cell line was seeded in a well known MEM 5% serum culture medium.\n(§4) The detailed experimental procedure was as following: after a 24-hour period of incubation at 37° C., the culture medium was replaced by 100 μl of fresh medium in which the compound to be tested was dissolved at the following molar concentrations: 10^−9 M, 5.10^−9 M, 10^−8 M, 5.10^−8 M, 10^−7 M, 5.10^−7 M, 10^−6 M, 5.10^−6 M and 10^−5 M. Each experiment was repeated 6 times.\n(§5) After 72 hours of incubation at 37° C. with (experimental conditions) or without (control condition) the compound to be tested, the medium was replaced by 100 μl MTT dissolved in RPMI at a concentration of 1 mg/ml. The micro-wells were subsequently incubated during 3 hours at 37° C. and centrifuged at 400 g during 10 minutes. MTT was removed and formazan crystals formed were dissolved in 100 μl DMSO. The micro-wells were shaken for 5 minutes and read on a spectrophotometer at wavelengths of 570 nm (maximum formazan absorbance) and 630 nm (back-ground noise).\n(§6) For each experimental condition, the mean optical density was calculated, as well as the percentage of remaining living cells in comparison with the control.\n(§7) IC50 values for compounds of examples 3 to 26 were obtained on cell lines Hs683, U-373MG, HCT-15, LoVo, A549 and MCF-7 described in Table 1. IC50 values for compounds from examples 27 to 45 were obtained on cell lines PC3, U-373MG, BxPC3, LoVo, A549 and MCF-7 described in Table 1."}, "[3]": {"system": "human Myeloma 8226/DOX 40 cell line", "conditions": "U.S. Pat. No. 5,635,506; cited from earlier work"}, "[4]": {"conditions": "compared with amonafide; U.S. Pat. No. 5,635,506; cited from earlier work"}, "tumors": {"system": "tumors", "conditions": "mice; compared with amonafide; U.S. Pat. No. 5,635,506; cited from earlier work"}, "[5]": {"system": "multidrug resistant tumors", "conditions": "in vitro; U.S. Pat. No. 5,635,506; cited from earlier work"}, "[6]": {"system": "human cancer cell lines PC3, U-373MG, BxPC3, LoVo, A549 and MCF-7", "assay": "MTT test, effect on overall cell growth (mean of six cell lines, examples 27 to 45)", "assay_type": "cell-based", "conditions": "mean of six cell lines PC3, U-373MG, A549, MCF-7, 72 hours incubation, range of molar concentrations resulting in 50% inhibition of overall tumor cells growth", "procedure": "as §2, §3, §4, §5, §6, §7"}, "[7]": {"system": "U-373 MG (Glioma cancer) cells", "assay": "Effect on cell migration, U-373MG", "assay_type": "cell-based", "conditions": "Homo sapiens, U373 MG, 22 hours on the 25% of most motile cells, p value in same cell, read-out: Maximum effects (cell migration)", "procedure": "as §1"}, "[8]": {"system": "PC3 (prostate cancer) cells", "assay": "Effect on cell migration, PC3", "assay_type": "cell-based", "conditions": "Homo sapiens, 22 hours on the 25% of most motile cells, p value in same cell, read-out: Maximum effects (cell migration); for Emax at 0.01 µM: at 10^−8 M", "procedure": "as §1"}, "[9]": {"system": "human tumour xenografts with colon, lung and mammary cancers", "conditions": "mice with colon; cited from earlier work"}, "leukemia models": {"system": "leukemia models", "conditions": "mice; cited from earlier work"}, "[10]": {"conditions": "patients receiving five daily doses of the drug; cited from earlier work"}, "[11]": {"system": "primary human solid tumours", "conditions": "in vitro; Ajani et al. Invest New Drugs (1988) 6:79-83; cited from earlier work"}},
  "data": [
    {"smiles": "CN(C)CCN1C(=O)c2cccc3cc4cccc(/N=C\\c5ccc6c(c5)OCO6)c4c(c23)C1=O", "note": "[Example 7, 11-{[(1Z)-1,3-benzodioxol-5-ylmethylidene]amino}-2-[2-(dimethylamino)ethyl]-1H-dibenzo[de,h]isoquinoline-1,3(2H)-dione]", "values": [
      {"measurement": "melting point", "value": 198, "unit": "°C"},
      {"measurement": "migration level of cancer cells", "setting": "[1]", "value": "induced a decrease in the migration level"},
      {"measurement": "Emax at 1 µM", "setting": "A549 (Lung cancer) cells; 22 hours on the 100% of cells, at 10^−6 M", "value": -20, "unit": "%"},
      {"measurement": "IC50", "setting": "[2]", "value": "> 10", "unit": "µM"}
    ]},
    {"smiles": "CN(C)CCN1C(=O)c2cccc3cc4ccccc4c(c23)C1=O", "note": "[azonafide, 2-[2′-(dimethylamino)ethyl]-1,2-dihydro-3H-dibenz(deh)isoquinoline-1,3-dione]", "values": [
      {"measurement": "cross resistance", "setting": "[3]", "value": "possible three-fold cross resistance"},
      {"measurement": "cardiotoxicity", "setting": "[4]", "value": "higher cardiotoxicity than amonafide"},
      {"measurement": "appearance of tumors and tumor growth", "setting": "tumors", "value": "delay the appearance of tumors and to reduce tumor growth in mice with more efficiency than amonafide"},
      {"measurement": "anti-tumor activity on multidrug resistant tumors", "setting": "[5]", "value": "showed anti-tumor activity"}
    ]},
    {"smiles": "CN(C)CCN1C(=O)c2cccc3cc4cccc(NC(=S)Nc5ccc(OC(F)(F)F)cc5)c4c(c23)C1=O", "note": "[Example 31, 1-{2-[2-(dimethylamino)ethyl]-1,3-dioxo-2,3-dihydro-1H-dibenzo[de,h]isoquinolin-11-yl}-3-[4-(trifluoromethoxy)phenyl]thiourea]", "values": [
      {"measurement": "IC50", "setting": "[6]", "value": "> 10", "unit": "µM"},
      {"measurement": "migration level of cancer cells", "setting": "[1]", "value": "induced a decrease in the migration level"},
      {"measurement": "cell migration activity compared with the closest compounds known in the art", "setting": "[1]", "value": "significantly greater cell migration activity than the closest compounds known in the art, or similar cell migration activity at significantly lower concentrations"},
      {"measurement": "Emax at 1 µM", "setting": "[7]; at 10^−6 M", "value": -60, "unit": "%"},
      {"measurement": "Emax at 1 µM", "setting": "[8]; at 10^−6 M", "value": -30, "unit": "%"}
    ]},
    {"smiles": "CN(C)CCN1C(=O)c2cccc3cc4c(N=Cc5cc(O)ccc5O)cccc4c(c23)C1=O", "note": "(stereo in doubt) [Example 6, 8-{[(1Z)-(2,5-dihydroxyphenyl)methylidene]amino}-2-[2-(dimethylamino)ethyl]-1H-dibenzo[de,h]isoquinoline-1,3(2H)-dione]", "values": [
      {"measurement": "melting point", "value": 205, "unit": "°C"},
      {"measurement": "migration level of cancer cells", "setting": "[1]", "value": "induced a decrease in the migration level"},
      {"measurement": "cell migration activity compared with the closest compounds known in the art", "setting": "[1]", "value": "significantly greater cell migration activity than the closest compounds known in the art, or similar cell migration activity at significantly lower concentrations"},
      {"measurement": "Emax at 0.01 µM", "setting": "A549 (Lung cancer) cells", "value": -29, "unit": "%"},
      {"measurement": "Emax at 0.01 µM", "setting": "[8]", "value": -24, "unit": "%"},
      {"measurement": "IC50", "setting": "[2]", "value": "1 to 5", "unit": "µM"}
    ]},
    {"smiles": "CN(C)CCN1C(=O)c2cccc3cc(N)cc(c23)C1=O", "note": "[amonafide]", "values": [
      {"measurement": "activity in human tumour xenografts", "setting": "[9]", "value": "no activity"},
      {"measurement": "activity in leukemia models", "setting": "leukemia models", "value": "only moderate activity"},
      {"measurement": "myelotoxicity", "setting": "[10]", "value": "substantial myelotoxicity leading to some deaths"},
      {"measurement": "activity in primary human solid tumours", "setting": "[11]", "value": "poor activity"}
    ]},
    {"smiles": "CCCCCNC(=O)Nc1cccc2cc3cccc4c3c(c12)C(=O)N(CCN(C)C)C4=O", "note": "[Example 13, 1-{2-[2-(dimethylamino)ethyl]-1,3-dioxo-2,3-dihydro-1H-dibenzo[de,h]isoquinolin-11-yl}-3-pentylurea]", "values": [
      {"measurement": "migration level of cancer cells", "setting": "[1]", "value": "induced a decrease in the migration level"},
      {"measurement": "cell migration activity compared with the closest compounds known in the art", "setting": "[1]", "value": "significantly greater cell migration activity than the closest compounds known in the art, or similar cell migration activity at significantly lower concentrations"},
      {"measurement": "Emax at 0.1 µM", "setting": "[7]; at 10^−7 M", "value": -24, "unit": "%"},
      {"measurement": "Emax at 0.01 µM", "setting": "[8]", "value": -43, "unit": "%"},
      {"measurement": "IC50", "setting": "[2]", "value": "5 to 10", "unit": "µM"}
    ]},
    {"smiles": "CN(C)CCN1C(=O)c2cccc3cc4cccc(/N=C\\c5cc(O)ccc5O)c4c(c23)C1=O", "note": "[Example 5, 11-{[(1Z)-(2,5-dihydroxyphenyl)methylidene}amino]-2-[2-(dimethylamino)ethyl]-1H-dibenzo[de,h]isoquinoline-1,3(2H)-dione]", "values": [
      {"measurement": "melting point", "value": 225, "unit": "°C"},
      {"measurement": "migration level of cancer cells", "setting": "[1]", "value": "induced a decrease in the migration level"},
      {"measurement": "cell migration activity compared with the closest compounds known in the art", "setting": "[1]", "value": "significantly greater cell migration activity than the closest compounds known in the art, or similar cell migration activity at significantly lower concentrations"},
      {"measurement": "Emax at 0.01 µM", "setting": "A549 (Lung cancer) cells", "value": -47, "unit": "%"},
      {"measurement": "IC50", "setting": "[2]", "value": "> 10", "unit": "µM"}
    ]}
  ]
}
